Laboratory results taken from patent US20250145687A1, “MODIFIED LIGAND-GATED ION CHANNELS AND METHODS OF USE” (Howard Hughes Medical Institute, priority 2022, published 2025).
Read-outs that look alike come from different tables or passages of the source.

How the values were obtained:
Type in all cases: cell-based
[1] = molecular target: T1, PSAM4-5HT3 (α7-5HT3^L131G,Q139L,Y217F) (Homo sapiens, UniProt P36544, L131G/M226I/Q139L/T225I/Y217F); experiment: EC50 dose response of LGIC ligands on PSAM4-5HT3; settings: read-out: EC50s (SEM) for additional mutations of α7^L131G, Q139L, Y217F -5HT3
T1 construct: expressed in transfected cells; host or cells: HEK 293

[2] = molecular target: T2, α7^L131G,Q139L,Y217F-5HT3 V154L, R155Y, W156Q (Homo sapiens, UniProt P36544, L131G/M226I/Q139L/R155Y/T225I/V154L/W156Q/Y217F); experiment: EC50 dose response, PSAM4-5HT3 with additional mutations; settings: read-out: EC50s (SEM) for additional mutations of α7^L131G, Q139L, Y217F -5HT3
T2 construct: expressed in transfected cells; host or cells: HEK 293

[3] = molecular target: T3, α7^L131G,Q139L,Y217F-5HT3 W156N (Homo sapiens, UniProt P36544, L131G/M226I/Q139L/T225I/W156N/Y217F); experiment: cell-based
T3 construct: expressed in transfected cells; host or cells: HEK 293

[4] = molecular target: T4, α7^L131G,Q139L,Y217F-5HT3 W156N, H163T (Homo sapiens, UniProt P36544, H163T/L131G/M226I/Q139L/T225I/W156N/Y217F); experiment: EC50 dose response, PSAM4-5HT3 with additional mutations; settings: read-out: EC50s (SEM) for additional mutations of α7^L131G, Q139L, Y217F -5HT3
T4 construct: expressed in transfected cells; host or cells: HEK 293

[5] = molecular target: T5, α7^L131G,Q139L,Y217F-5HT3 H163A (Homo sapiens, UniProt P36544, H163A/L131G/M226I/Q139L/T225I/Y217F); experiment: as above; settings: additional mutation H163A; read-out: EC50s (SEM) for additional mutations of α7^L131G, Q139L, Y217F -5HT3
T5 construct: expressed in transfected cells; host or cells: HEK 293

[6] = molecular target: T6, α7^L131G,Q139L,Y217F-5HT3 H163D (Homo sapiens, UniProt P36544, H163D/L131G/M226I/Q139L/T225I/Y217F); experiment: as above; settings: additional mutation H163D; read-out: EC50s (SEM) for additional mutations of α7^L131G, Q139L, Y217F -5HT3
T6 construct: expressed in transfected cells; host or cells: HEK 293

[7] = molecular target: T7, α7^L131G,Q139L,Y217F-5HT3 H163F (Homo sapiens, UniProt P36544, H163F/L131G/M226I/Q139L/T225I/Y217F); experiment: as above; settings: additional mutation H163F; read-out: EC50s (SEM) for additional mutations of α7^L131G, Q139L, Y217F -5HT3
T7 construct: expressed in transfected cells; host or cells: HEK 293

[8] = molecular target: T8, α7^L131G,Q139L,Y217F-5HT3 H163K (Homo sapiens, UniProt P36544, H163K/L131G/M226I/Q139L/T225I/Y217F); experiment: as above; settings: additional mutation H163K; read-out: EC50s (SEM) for additional mutations of α7^L131G, Q139L, Y217F -5HT3
T8 construct: expressed in transfected cells; host or cells: HEK 293

[9] = molecular target: T9, α7^L131G,Q139L,Y217F-5HT3 H163N (Homo sapiens, UniProt P36544, H163N/L131G/M226I/Q139L/T225I/Y217F); experiment: as above; settings: additional mutation H163N; read-out: EC50s (SEM) for additional mutations of α7^L131G, Q139L, Y217F -5HT3
T9 construct: expressed in transfected cells; host or cells: HEK 293

[10] = molecular target: T10, α7^L131G,Q139L,Y217F-5HT3 H163R (Homo sapiens, UniProt P36544, H163R/L131G/M226I/Q139L/T225I/Y217F); experiment: as above; settings: additional mutation H163R; read-out: EC50s (SEM) for additional mutations of α7^L131G, Q139L, Y217F -5HT3
T10 construct: expressed in transfected cells; host or cells: HEK 293

[11] = molecular target: T11, α7^L131G,Q139L,Y217F-5HT3 H163S (Homo sapiens, UniProt P36544, H163S/L131G/M226I/Q139L/T225I/Y217F); experiment: as above; settings: additional mutation H163S; read-out: EC50s (SEM) for additional mutations of α7^L131G, Q139L, Y217F -5HT3
T11 construct: expressed in transfected cells; host or cells: HEK 293

[12] = molecular target: T12, α7^L131G,Q139L,Y217F-5HT3 H163T (Homo sapiens, UniProt P36544, H163T/L131G/M226I/Q139L/T225I/Y217F); experiment: as above; settings: additional mutation H163T; read-out: EC50s (SEM) for additional mutations of α7^L131G, Q139L, Y217F -5HT3
T12 construct: expressed in transfected cells; host or cells: HEK 293

[13] = molecular target: T13, α7^L131G,Q139L,Y217F-5HT3 H163V (Homo sapiens, UniProt P36544, H163V/L131G/M226I/Q139L/T225I/Y217F); experiment: as above; settings: additional mutation H163V; read-out: EC50s (SEM) for additional mutations of α7^L131G, Q139L, Y217F -5HT3
T13 construct: expressed in transfected cells; host or cells: HEK 293

[14] = molecular target: T14, α7^L131G,Q139L,Y217F-5HT3 S172A (Homo sapiens, UniProt P36544, L131G/M226I/Q139L/S172A/T225I/Y217F); experiment: as above; settings: additional mutation S172A; read-out: EC50s (SEM) for additional mutations of α7^L131G, Q139L, Y217F -5HT3
T14 construct: expressed in transfected cells; host or cells: HEK 293

[15] = molecular target: T15, α7^L131G,Q139L,Y217F-5HT3 H163T, S172A (Homo sapiens, UniProt P36544, H163T/L131G/M226I/Q139L/S172A/T225I/Y217F); experiment: as above; settings: read-out: EC50s (SEM) for additional mutations of α7^L131G, Q139L, Y217F -5HT3
T15 construct: expressed in transfected cells; host or cells: HEK 293

[16] = molecular target: T16, α7^L131G,Q139L,Y217F-5HT3 V154I, R155Y, W156N, S172A (Homo sapiens, UniProt P36544, L131G/M226I/Q139L/R155Y/S172A/T225I/V154I/W156N/Y217F); experiment: as above; settings: read-out: EC50s (SEM) for additional mutations of α7^L131G, Q139L, Y217F -5HT3
T16 construct: expressed in transfected cells; host or cells: HEK 293

[17] = molecular target: T17, α7^L131G,Q139L,Y217F-5HT3 V154I, R155Y, W156N, S172V (Homo sapiens, UniProt P36544, L131G/M226I/Q139L/R155Y/S172V/T225I/V154I/W156N/Y217F); experiment: as above; settings: read-out: EC50s (SEM) for additional mutations of α7^L131G, Q139L, Y217F -5HT3
T17 construct: expressed in transfected cells; host or cells: HEK 293

[18] = molecular target: T18, α7^L131G,Q139L,Y217F-5HT3 H163T, S172V (Homo sapiens, UniProt P36544, H163T/L131G/M226I/Q139L/S172V/T225I/Y217F); experiment: as above; settings: read-out: EC50s (SEM) for additional mutations of α7^L131G, Q139L, Y217F -5HT3
T18 construct: expressed in transfected cells; host or cells: HEK 293

[19] = molecular target: T19, α7^L131G,Q139L,Y217F-5HT3 S172I (Homo sapiens, UniProt P36544, L131G/M226I/Q139L/S172I/T225I/Y217F); experiment: as above; settings: additional mutation S172I; read-out: EC50s (SEM) for additional mutations of α7^L131G, Q139L, Y217F -5HT3
T19 construct: expressed in transfected cells; host or cells: HEK 293

[20] = molecular target: T20, α7^L131G,Q139L,Y217F-5HT3 S172V (Homo sapiens, UniProt P36544, L131G/M226I/Q139L/S172V/T225I/Y217F); experiment: as above; settings: additional mutation S172V; read-out: EC50s (SEM) for additional mutations of α7^L131G, Q139L, Y217F -5HT3
T20 construct: expressed in transfected cells; host or cells: HEK 293

[21] = molecular target: T21, α7-5HT3 L131G, Q139L, W171F (Homo sapiens, UniProt P36544, L131G/M226I/Q139L/T225I/W171F); experiment: EC50 dose response, α7-5HT3 mutant; settings: read-out: EC50s (SEM) for additional mutations of α7^L131G, Q139L, Y217F -5HT3
T21 construct: expressed in transfected cells; host or cells: HEK 293

[22] = molecular target: T22, α7-5HT3 L131G, Q139L, W171Y (Homo sapiens, UniProt P36544, L131G/M226I/Q139L/T225I/W171Y); experiment: EC50 dose response, α7-5HT3 mutant; settings: read-out: EC50s (SEM) for additional mutations of α7^L131G, Q139L, Y217F -5HT3
T22 construct: expressed in transfected cells; host or cells: HEK 293

[23] = molecular target: T23, α7-5HT3 L131G, Q139L, Y217A (Homo sapiens, UniProt P36544, L131G/M226I/Q139L/T225I/Y217A); experiment: EC50 dose response, α7-5HT3 mutant; settings: read-out: EC50s (SEM) for additional mutations of α7^L131G, Q139L, Y217F -5HT3
T23 construct: expressed in transfected cells; host or cells: HEK 293

[24] = molecular target: T24, α7-5HT3 L131G, Q139L, Y217H (Homo sapiens, UniProt P36544, L131G/M226I/Q139L/T225I/Y217H); experiment: EC50 dose response, α7-5HT3 mutant; settings: read-out: EC50s (SEM) for additional mutations of α7^L131G, Q139L, Y217F -5HT3
T24 construct: expressed in transfected cells; host or cells: HEK 293

[25] = molecular target: T25, α7-5HT3 L131G, Q139L, Y217N (Homo sapiens, UniProt P36544, L131G/M226I/Q139L/T225I/Y217N); experiment: EC50 dose response, α7-5HT3 mutant; settings: read-out: EC50s (SEM) for additional mutations of α7^L131G, Q139L, Y217F -5HT3
T25 construct: 5HT3 ion pore domain (fusion partner); expressed in transfected cells

[26] = molecular target: T26, α7-5HT3 L131G, Q139L, Y217V (Homo sapiens, UniProt P36544, L131G/M226I/Q139L/T225I/Y217V); experiment: EC50 dose response, α7-5HT3 mutant; settings: read-out: EC50s (SEM) for additional mutations of α7^L131G, Q139L, Y217F -5HT3
T26 construct: 5HT3 ion pore domain (fusion partner); expressed in transfected cells; HEK 293 is named only for the electrophysiology

[27] = molecular target: T27, α7^L131G,Q139L,Y217F-5HT3 V154I, R155Y, W156N (Homo sapiens, UniProt P36544, L131G/M226I/Q139L/R155Y/T225I/V154I/W156N/Y217F); experiment: EC50 dose response, PSAM4-5HT3 with additional mutations; settings: read-out: EC50s (SEM) for additional mutations of α7^L131G, Q139L, Y217F -5HT3
T27 construct: expressed in transfected cells; host or cells: HEK 293

[28] = PSAM4-5HT3 (no additional mutation)
[29] = line L131G, Q139L, Y217F (same values as PSAM4-5HT3 line)

T1 sequence (P36544 with tags, fused parts or gaps L131G/Q139L/Y217F/T225I/M226I limits assumed): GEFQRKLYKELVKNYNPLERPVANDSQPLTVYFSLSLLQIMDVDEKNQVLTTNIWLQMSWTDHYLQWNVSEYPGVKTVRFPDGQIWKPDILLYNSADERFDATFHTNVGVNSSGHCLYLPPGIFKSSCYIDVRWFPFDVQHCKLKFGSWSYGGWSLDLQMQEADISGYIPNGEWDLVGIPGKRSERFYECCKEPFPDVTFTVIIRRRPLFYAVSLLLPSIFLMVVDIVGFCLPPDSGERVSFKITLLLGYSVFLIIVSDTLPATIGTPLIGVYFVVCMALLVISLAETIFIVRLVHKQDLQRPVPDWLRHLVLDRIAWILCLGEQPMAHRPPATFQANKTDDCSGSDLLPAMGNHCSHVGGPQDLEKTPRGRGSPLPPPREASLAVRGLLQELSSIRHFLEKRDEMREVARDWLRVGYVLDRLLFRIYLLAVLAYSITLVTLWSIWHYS
T26 sequence (P36544 with tags, fused parts or gaps L131G/Q139L/Y217V/T225I/M226I limits assumed): as the sequence (P36544 with tags, fused parts or gaps L131G/Q139L/Y217F/T225I/M226I limits assumed) above, with F195V counted along it
T8 sequence (P36544 with tags, fused parts or gaps L131G/Q139L/H163K/Y217F/T225I/M226I limits assumed): as the sequence (P36544 with tags, fused parts or gaps L131G/Q139L/Y217F/T225I/M226I limits assumed) above, with H141K counted along it
T11 sequence (P36544 with tags, fused parts or gaps L131G/Q139L/H163S/Y217F/T225I/M226I limits assumed): as the sequence (P36544 with tags, fused parts or gaps L131G/Q139L/Y217F/T225I/M226I limits assumed) above, with H141S counted along it
T5 sequence (P36544 with tags, fused parts or gaps L131G/Q139L/H163A/Y217F/T225I/M226I limits assumed): as the sequence (P36544 with tags, fused parts or gaps L131G/Q139L/Y217F/T225I/M226I limits assumed) above, with H141A counted along it
T2 sequence (P36544 with tags, fused parts or gaps L131G/Q139L/V154L/R155Y/W156Q/Y217F/T225I/M226I limits assumed): as the sequence (P36544 with tags, fused parts or gaps L131G/Q139L/Y217F/T225I/M226I limits assumed) above, with V132L, R133Y, W134Q counted along it
T21 sequence (P36544 with tags, fused parts or gaps L131G/Q139L/W171F/T225I/M226I limits assumed): as the sequence (P36544 with tags, fused parts or gaps L131G/Q139L/Y217F/T225I/M226I limits assumed) above, with W149F, F195Y counted along it
T4 sequence (P36544 with tags, fused parts or gaps L131G/Q139L/W156N/H163T/Y217F/T225I/M226I limits assumed): as the sequence (P36544 with tags, fused parts or gaps L131G/Q139L/Y217F/T225I/M226I limits assumed) above, with W134N, H141T counted along it
T24 sequence (P36544 with tags, fused parts or gaps L131G/Q139L/Y217H/T225I/M226I limits assumed): as the sequence (P36544 with tags, fused parts or gaps L131G/Q139L/Y217F/T225I/M226I limits assumed) above, with F195H counted along it
T17 sequence (P36544 with tags, fused parts or gaps L131G/Q139L/V154I/R155Y/W156N/S172V/Y217F/T225I/M226I limits assumed): as the sequence (P36544 with tags, fused parts or gaps L131G/Q139L/Y217F/T225I/M226I limits assumed) above, with V132I, R133Y, W134N, S150V counted along it
T15 sequence (P36544 with tags, fused parts or gaps L131G/Q139L/H163T/S172A/Y217F/T225I/M226I limits assumed): as the sequence (P36544 with tags, fused parts or gaps L131G/Q139L/Y217F/T225I/M226I limits assumed) above, with H141T, S150A counted along it

SMILES	EC50 [1, 28]	EC50 [1, 29]	EC50 [2]	EC50 [4]	EC50 [5]	EC50 [6]	EC50 [7]	EC50 [8]	EC50 [9]	EC50 [10]	EC50 [11]	EC50 [12]	EC50 [13]	EC50 [14]	EC50 [15]	EC50 [16]	EC50 [17]	EC50 [18]	EC50 [19]	EC50 [20]	other results
COc1cnc2cc3c(cc2n1)C1CNCC3C1 (centres unmarked) [uPSEM 793]	0.0017 µM	0.0017 µM	0.0007 µM	0.002 µM	0.0005 µM	0.0003 µM	0.0007 µM	0.0005 µM	0.0021 µM	0.0015 µM	0.0004 µM	0.0014 µM	0.0015 µM	0.004 µM	0.0025 µM	0.0041 µM	0.0077 µM	0.0015 µM	0.01 µM	0.0027 µM	EC50 ([3]; additional mutation W156N, read-out: EC50s (SEM) for additional mutations of α7^L131G, Q139L, Y217F -5HT3): 0.0007 µM; EC50 [21]: > 0.1 µM; EC50 [22]: > 0.1 µM; EC50 [23]: 0.0012 µM; EC50 [24]: 0.0008 µM; EC50 [25]: > 0.1 µM; EC50 [26]: 0.0024 µM
C[N+](C)(C)CCO [Choline, choline, reference compound]	143 µM	143 µM	94 µM	646 µM	219 µM	361 µM	230 µM	168 µM	107 µM	153 µM	245 µM	330 µM	508 µM	349 µM	1020 µM	680 µM	910 µM	1330 µM	1110 µM	895 µM	EC50 [27]: 330 µM; EC50 [3]: 172 µM; EC50 [21]: 177 µM; EC50 [23]: 832 µM; EC50 [24]: 2060 µM; EC50 [26]: 1160 µM
